In patent publication US11407781B2, “Equatorially modified polymer linked multimers of guanosine-3′, 5′-cyclic monophosphates” (GRAYBUG VISION, INC., priority 2016, dated 2022):

Experiment: Determination of lipophilicity by RP-18 HPLC retention (log k′g)
Format: physicochemical
Details: RP-18 reversed phase HPLC, gradient elution, ion pair chromatography with triethylammonium cation
From the text: Lipophilicity information is thus often only obtained by fragment analysis and corresponding calculations.
An established HPLC method, which is based on retention data on RP-18 reversed phase silica during gradient elution, was used for the determination of lipohilicity.
Instead of log P the method yields the descriptor log k′g, ranking analytes according to their lipophilicity on a logarithmic scale as well. Since charged molecules such as cyclic nucleotides have only hardly any retention on reversed phases, ion pair chromatography with the lipophilic triethylammonium cation is used.

Question: Which “log k′g” value does the source give for `CC(C)c1ccc(Sc2nc3c(=O)n4cc(-c5ccccc5)[nH]c4nc3n2[C@@H]2O[C@@H]3CO[P@@](=O)(S)O[C@H]3[C@H]2O)cc1` (single isomer, unassigned) [Compound 35, 8-(4-Isopropylphenylthio)-β-phenyl-1,N^2-ethenoguanosine-3′,5′-cyclic monophosphorothioate, Rp-isomer] here?
Answer: The value was 3.815.
